What all share (format): functional
For assay [1], the system named is Candida albicans. Put plainly: Antifungal activity against drug-resistant Candida albicans by CLSI two fold serial dilution method.
The next assay concerns Bacillus subtilis. Description: Antibacterial activity against Bacillus subtilis ATCC 21216 after 18 to 24 hrs by CLSI two fold serial dilution method.
In another assay the test system is Saccharomyces cerevisiae. Description: Antifungal activity against Saccharomyces cerevisiae ATCC 9763 by CLSI two fold serial dilution method.
The next assay deals with Enterococcus faecalis. Description: Antibacterial activity against drug-resistant Enterococcus faecalis after 18 to 24 hrs by CLSI two fold serial dilution method.
In the next assay the test system is Micrococcus luteus. Description: Antibacterial activity against Micrococcus luteus ATCC 4698 after 18 to 24 hrs by CLSI two fold serial dilution method.
Assay [2] concerns Pseudomonas aeruginosa. Put plainly: Antibacterial activity against drug-resistant Pseudomonas aeruginosa after 18 to 24 hrs by CLSI two fold serial dilution method.
For a further assay, the system named is Acinetobacter baumannii. Put plainly: Antibacterial activity against drug-resistant Acinetobacter baumannii after 18 to 24 hrs by CLSI two fold serial dilution method.
The subject of assay [3] is Staphylococcus aureus. Put plainly: Antibacterial activity against Staphylococcus aureus ATCC 25923 after 18 to 24 hrs by CLSI two fold serial dilution method.
For another assay, the system named is Aspergillus flavus. Description: Antifungal activity against Aspergillus flavus ATCC 204304 by CLSI two fold serial dilution method.
The test system of assay [4] is Escherichia coli. Put plainly: Antibacterial activity against drug-resistant Escherichia coli after 18 to 24 hrs by CLSI two fold serial dilution method.
A further assay deals with Cyberlindnera jadinii. Put plainly: Antifungal activity against Candida utilis ATCC 9950 by CLSI two fold serial dilution method. Particulars: Williopsis jadinii.
Assay [5] deals with Candida albicans. Description: Antifungal activity against Candida albicans ATCC 76615 by CLSI two fold serial dilution method.
The test system of assay [6] is Escherichia coli. Description: Antibacterial activity against Escherichia coli DH52 after 18 to 24 hrs by CLSI two fold serial dilution method.
For assay [7], the system named is Pseudomonas aeruginosa. Description: Antibacterial activity against Pseudomonas aeruginosa ATCC 27853 after 18 to 24 hrs by CLSI two fold serial dilution method.
In the next assay the test system is Aspergillus fumigatus. Description: Antifungal activity against drug-resistant Aspergillus fumigatus by CLSI two fold serial dilution method.
For a further assay, the system named is Candida tropicalis. Description: Antifungal activity against drug-resistant Candida tropicalis by CLSI two fold serial dilution method.
In assay [8] the test system is Staphylococcus aureus. Description: Antibacterial activity against methicillin-resistant Staphylococcus aureus N315 after 18 to 24 hrs by CLSI two fold serial dilution method.
Another assay relates to Pichia norvegensis. Put plainly: Antifungal activity against Candida mycoderma ATCC 96918 by CLSI two fold serial dilution method.
A further assay has as its system Candida parapsilosis. Put plainly: Antifungal activity against Candida parapsilosis ATCC 22019 by CLSI two fold serial dilution method. To be noted: Lodderomyces parapsilosis.
A further assay relates to Klebsiella pneumoniae. Description: Antibacterial activity against drug-resistant Klebsiella pneumoniae after 18 to 24 hrs by CLSI two fold serial dilution method.

SMILES strings stand for the structures. Converted amounts (≈) assume the structure as drawn.

Turning to `CCCCOc1c(OC)cc(/C=N/NC(N)=S)c2c1CN1CCc3cc4c(cc3C1C2)OCO4` (stereo not given), the MIC (usually the smallest concentration in the dilution series that meets the test's criterion for growth inhibition) in the assay with Candida albicans [1] amounted to 130 µM (≈ 62.7 µg/mL); against Bacillus subtilis, 270 µM (≈ 130 µg/mL); against Saccharomyces cerevisiae, 530 µM (≈ 256 µg/mL); in the assay with Enterococcus faecalis, 130 µM (≈ 62.7 µg/mL); against Micrococcus luteus it was 270 µM (≈ 130 µg/mL); with Pseudomonas aeruginosa [2], 270 µM (≈ 130 µg/mL). For the same compound, the MIC was 70 µM (≈ 33.8 µg/mL) against Acinetobacter baumannii; 130 µM (≈ 62.7 µg/mL) in the assay with Staphylococcus aureus [3]; 270 µM (≈ 130 µg/mL) with Aspergillus flavus; 270 µM (≈ 130 µg/mL) in the assay with Escherichia coli [4]; 130 µM (≈ 62.7 µg/mL) with Cyberlindnera jadinii; 130 µM (≈ 62.7 µg/mL) in the assay with Candida albicans [5]. Besides, the MIC in the assay with Escherichia coli [6] turned out to be 270 µM (≈ 130 µg/mL); in the assay with Pseudomonas aeruginosa [7], 130 µM (≈ 62.7 µg/mL); in the assay on Aspergillus fumigatus, 270 µM (≈ 130 µg/mL); against Candida tropicalis, 270 µM (≈ 130 µg/mL); against Staphylococcus aureus [8] it was 130 µM (≈ 62.7 µg/mL); with Pichia norvegensis, 130 µM (≈ 62.7 µg/mL). The MIC in the assay on Candida parapsilosis and against Klebsiella pneumoniae was 130 µM (≈ 62.7 µg/mL) throughout.
Turning to `COc1cc(/C=N/NC(N)=S)c2c(c1OCc1cccc(Cl)c1)CN1CCc3cc4c(cc3C1C2)OCO4` (stereo not given), the MIC was found to be 470 µM (≈ 259 µg/mL) against Candida albicans [1]; 120 µM (≈ 66.1 µg/mL) against Bacillus subtilis; 230 µM (≈ 127 µg/mL) with Saccharomyces cerevisiae; 230 µM (≈ 127 µg/mL) against Enterococcus faecalis; 470 µM (≈ 259 µg/mL) in the assay with Micrococcus luteus; 470 µM (≈ 259 µg/mL) with Pseudomonas aeruginosa [2]. The MIC with Acinetobacter baumannii was 120 µM (≈ 66.1 µg/mL); in the assay on Staphylococcus aureus [3], 60 µM (≈ 33.1 µg/mL); with Aspergillus flavus, 230 µM (≈ 127 µg/mL); against Escherichia coli [4], 470 µM (≈ 259 µg/mL); in the assay on Cyberlindnera jadinii it was 470 µM (≈ 259 µg/mL); in the assay on Candida albicans [5] it was 230 µM (≈ 127 µg/mL). The MIC in the assay with Escherichia coli [6] amounted to 230 µM (≈ 127 µg/mL); in the assay with Pseudomonas aeruginosa [7], 230 µM (≈ 127 µg/mL); against Aspergillus fumigatus, 120 µM (≈ 66.1 µg/mL); against Candida tropicalis it was 230 µM (≈ 127 µg/mL); with Staphylococcus aureus [8], 120 µM (≈ 66.1 µg/mL); against Pichia norvegensis it was 120 µM (≈ 66.1 µg/mL). Besides, the MIC with Candida parapsilosis and against Klebsiella pneumoniae was 120 µM (≈ 66.1 µg/mL) in each case.
On to `COc1cc(/C=N/NC(N)=S)c2c(c1OCc1ccccc1F)CN1CCc3cc4c(cc3C1C2)OCO4` (stereo not given), for which the MIC in the assay with Candida albicans [1] is 480 µM (≈ 257 µg/mL); against Bacillus subtilis, 240 µM (≈ 128 µg/mL); in the assay with Saccharomyces cerevisiae, 960 µM (≈ 513 µg/mL); against Enterococcus faecalis it was 240 µM (≈ 128 µg/mL); in the assay on Micrococcus luteus, 240 µM (≈ 128 µg/mL); in the assay with Pseudomonas aeruginosa [2], 480 µM (≈ 257 µg/mL). The MIC amounted to 4 µM (≈ 2.14 µg/mL) in the assay with Acinetobacter baumannii; 30 µM (≈ 16 µg/mL) against Staphylococcus aureus [3]; 480 µM (≈ 257 µg/mL) against Aspergillus flavus; 240 µM (≈ 128 µg/mL) in the assay with Escherichia coli [4]; 480 µM (≈ 257 µg/mL) in the assay with Cyberlindnera jadinii; 480 µM (≈ 257 µg/mL) against Candida albicans [5]. The MIC against Escherichia coli [6] was 240 µM (≈ 128 µg/mL); against Pseudomonas aeruginosa [7], 480 µM (≈ 257 µg/mL); against Aspergillus fumigatus it was 4 µM (≈ 2.14 µg/mL); in the assay with Candida tropicalis, 120 µM (≈ 64.2 µg/mL); in the assay on Staphylococcus aureus [8], 30 µM (≈ 16 µg/mL); with Pichia norvegensis, 240 µM (≈ 128 µg/mL). For the same compound, the values for the MIC with Candida parapsilosis and in the assay with Klebsiella pneumoniae were 240 µM (≈ 128 µg/mL) and 480 µM (≈ 257 µg/mL), respectively.
As for `COc1cc(/C=N/NC(N)=S)c2c(c1OCc1ccc(Cl)cc1Cl)CN1CCc3cc4c(cc3C1C2)OCO4` (stereo not given), the MIC with Candida albicans [1] turned out to be 110 µM (≈ 64.4 µg/mL); against Bacillus subtilis, 220 µM (≈ 129 µg/mL); against Saccharomyces cerevisiae, 880 µM (≈ 515 µg/mL); with Enterococcus faecalis it was 440 µM (≈ 258 µg/mL); with Micrococcus luteus, 110 µM (≈ 64.4 µg/mL); against Pseudomonas aeruginosa [2], 220 µM (≈ 129 µg/mL). Besides, the MIC in the assay on Acinetobacter baumannii is 3 µM (≈ 1.76 µg/mL); with Staphylococcus aureus [3], 110 µM (≈ 64.4 µg/mL); with Aspergillus flavus, 440 µM (≈ 258 µg/mL); against Escherichia coli [4], 440 µM (≈ 258 µg/mL); in the assay with Cyberlindnera jadinii, 440 µM (≈ 258 µg/mL); in the assay on Candida albicans [5], 110 µM (≈ 64.4 µg/mL). Besides, the MIC came out at 440 µM (≈ 258 µg/mL) in the assay with Escherichia coli [6]; 220 µM (≈ 129 µg/mL) in the assay on Pseudomonas aeruginosa [7]; 110 µM (≈ 64.4 µg/mL) against Aspergillus fumigatus; 220 µM (≈ 129 µg/mL) against Candida tropicalis; 110 µM (≈ 64.4 µg/mL) with Staphylococcus aureus [8]; 220 µM (≈ 129 µg/mL) in the assay on Pichia norvegensis. The values for the MIC against Candida parapsilosis and with Klebsiella pneumoniae were 10 µM (≈ 5.86 µg/mL) and 220 µM (≈ 129 µg/mL), respectively.
As to `COc1cc(/C=N/NC(N)=S)c2c(c1OCc1ccccc1)CN1CCc3cc4c(cc3C1C2)OCO4` (stereo not given), the MIC with Candida albicans [1], with Bacillus subtilis, in the assay with Saccharomyces cerevisiae, against Enterococcus faecalis, with Micrococcus luteus and against Pseudomonas aeruginosa [2] was 250 µM (≈ 129 µg/mL) each time. Moreover, the MIC was 120 µM (≈ 62 µg/mL) against Acinetobacter baumannii; 120 µM (≈ 62 µg/mL) against Staphylococcus aureus [3]; 250 µM (≈ 129 µg/mL) in the assay with Aspergillus flavus; 250 µM (≈ 129 µg/mL) against Escherichia coli [4]; 250 µM (≈ 129 µg/mL) with Cyberlindnera jadinii; 250 µM (≈ 129 µg/mL) with Candida albicans [5]. Further, the MIC is 250 µM (≈ 129 µg/mL) in the assay on Escherichia coli [6]; 250 µM (≈ 129 µg/mL) in the assay with Pseudomonas aeruginosa [7]; 60 µM (≈ 31 µg/mL) in the assay with Aspergillus fumigatus; 250 µM (≈ 129 µg/mL) in the assay with Candida tropicalis; 120 µM (≈ 62 µg/mL) in the assay on Staphylococcus aureus [8]; 500 µM (≈ 258 µg/mL) in the assay with Pichia norvegensis. Besides, the MIC with Candida parapsilosis amounted to 30 µM (≈ 15.5 µg/mL); in the assay on Klebsiella pneumoniae, 500 µM (≈ 258 µg/mL).

The record behind these values is ChEMBL document CHEMBL4145497, “Discovery of 2-aminothiazolyl berberine derivatives as effectively antibacterial agents toward clinically drug-resistant Gram-negative Acinetobacter baumanii” (Eur J Med Chem, 2018).
